Among the test systems are SF-539; SF-295; HT-29; RPMI-8226; MOLT-4; SNB-75; HOP-62; A549; SK-MEL-28; COLO 205; TK-10; UO-31; HCT-116; EKVX; UACC-257; UACC-62; KM12; HOP-92.
What all share (assay): growth of human tumour cells (NCI), 48 h

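Protocol summary: plate cells (96-well), add compound at 5 concentrations, incubate 48 h, interpolate endpoints linearly. At the GI50, growth is halved.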 Active and inactive are the calls of the source. No stated cut-off is given here; in the data, active = GI50 up to about 1.1 µM and inactive = higher. Some results are limits rather than exact numbers.

Regarding `CCNC(=O)C(O)C1(O)CCC2[C@@H]3CCC4=CC(=O)C=C[C@]4(C)C3[C@@H](O)C[C@@]21C` (some centres undefined), the GI50 with SF-539 is > 100 µM (inactive); in the assay on SF-295, > 100 µM (inactive); with HT-29, > 100 µM (inactive); with RPMI-8226, 22.4 µM (inactive); with MOLT-4, 52.1 µM (inactive); in the assay on SNB-75, > 100 µM (inactive). Further, the GI50 with HOP-62 was > 100 µM (inactive); in the assay on A549 it was 86.9 µM (inactive); in the assay on SK-MEL-28 it was > 100 µM (inactive); in the assay with COLO 205, > 100 µM (inactive); with TK-10, > 100 µM (inactive); in the assay on UO-31 it was > 100 µM (inactive). Also, the GI50 with HCT-116, in the assay on EKVX, in the assay on UACC-257, in the assay on UACC-62 and with KM12 was > 100 µM (inactive) each time.

Regarding `Cc1nc([N+](=O)[O-])cn1CC(=N)N`, the GI50 was > 100 µM (inactive) in the assay on SF-539; > 100 µM (inactive) with SF-295; > 100 µM (inactive) with HT-29; > 100 µM (inactive) in the assay with RPMI-8226; > 100 µM (inactive) in the assay with MOLT-4; 20.8 µM (inactive) with SNB-75. Moreover, the GI50 with HOP-62, in the assay on A549, with SK-MEL-28, with COLO 205, in the assay on TK-10 and in the assay on UO-31 was > 100 µM (inactive) each time. Also, the GI50 with HCT-116, in the assay on EKVX, with UACC-257 and in the assay on UACC-62 was > 100 µM (inactive) each time.

On to `CN(C)CCSc1cccc(-c2cc(-c3cccc(SCCN(C)C)c3)nc(SCCN(C)C)n2)c1`, for which the GI50 with SF-539 is 1.77 µM (inactive); in the assay with SF-295, 2 µM (inactive); with HT-29, 1.55 µM (inactive); in the assay with MOLT-4 it was 1.63 µM (inactive); with SNB-75 it was 2.95 µM (inactive); in the assay with HOP-62, 16.3 µM (inactive). Also, the GI50 was 1.71 µM (inactive) with A549; 1.93 µM (inactive) in the assay on SK-MEL-28; 2.88 µM (inactive) with TK-10; 12.8 µM (inactive) in the assay with UO-31; 1.17 µM (inactive) with HCT-116; 2.06 µM (inactive) in the assay on EKVX. In addition, the GI50 was 1.59 µM (inactive) with UACC-257, 17.5 µM (inactive) with UACC-62, 0.551 µM (active) in the assay on HOP-92 and 1.66 µM (inactive) in the assay with KM12.

Turning to `Cc1ccc(S(=O)(=O)OCOS(=O)(=O)c2ccc(C)cc2)cc1`, the GI50 with SF-539, in the assay on SF-295, with RPMI-8226, in the assay on MOLT-4, with HOP-62 and with A549 was > 100 µM (inactive) each time. Moreover, the GI50 in the assay on SK-MEL-28, in the assay with COLO 205, in the assay with TK-10, in the assay with UO-31, with HCT-116 and in the assay with EKVX was > 100 µM (inactive) in each case. Further, the GI50 in the assay with UACC-257 was > 100 µM (inactive); in the assay with UACC-62, > 10 µM (inactive); in the assay on KM12 it was > 100 µM (inactive).

Regarding `O=C(c1ccccc1)[C@H]1Nc2ccc(Cl)cc2[C@H]2CCC[C@@H]12`, the GI50 was 33.2 µM (inactive) in the assay on SF-539; 32.1 µM (inactive) with SF-295; 21 µM (inactive) in the assay with HT-29; 11.9 µM (inactive) in the assay with RPMI-8226; 5.7 µM (inactive) in the assay on MOLT-4; 21.7 µM (inactive) with SNB-75. The GI50 in the assay with HOP-62 was > 100 µM (inactive); with A549 it was 42 µM (inactive); in the assay with SK-MEL-28 it was 19.4 µM (inactive); with COLO 205 it was 25.1 µM (inactive); in the assay with TK-10, 30.6 µM (inactive); in the assay on UO-31, 17.8 µM (inactive). For the same compound, the values for the GI50 in the assay on HCT-116, in the assay with UACC-62 and with KM12 were 13.2 µM (inactive), 25.8 µM (inactive) and 49.1 µM (inactive), respectively.

The values are drawn from ChEMBL document CHEMBL1201862, “PubChem BioAssay data set” (2004).
